Measurements published in patent publication US7838518B2, “1-arylsulfonyl-3-substituted indole and indoline derivatives useful in the treatment of central nervous system disorders” (N.V. Organon, priority 2002, dated 2010).
Structures can show the parent of a compound that is named as a salt.

Target: T1, human 5-HT6 receptor (Homo sapiens, UniProt P50406)
T1 construct: expressed in transfected cells
Experiment: 5-HT6 receptor binding assay ([3H]-LSD competition)
Conditions: membranes of NIH 3T3 cells stably expressing the human 5-HT6 gene; [3H]-LSD radioligand; IC50 converted to pKi by Cheng-Prusoff equation; read-out: pKi (affinity for the 5-HT6 receptor) (converted)
Protocol: The ability of the compounds of the invention to interact with the 5-HT6 receptor is established in (competitive) binding studies to NIH 3T3 cells stably expressing the human 5-HT6 receptor.
NIH 3T3 cells stably expressing the human 5-HT6 gene were grown at 37° C. in a 5% CO2 atmosphere in DMEM supplemented with 10% cosmic calf serum (Hyclone) and subcultured when confluent. Cells were harvested by trypsination (Sigma) and membranes prepared by homogenisation followed by centrifugation in […] Tris buffer (pH 7.4) containing […] magnesium sulphate and […] EDTA. Radioligand binding assays were performed in 96 well polystyrene deep well plates (Semat) in a final volume of 500 μl, consisting of 100 μl of competing drug, 100 μl of 10 nmole·L^−1 [^3H]-lysergic acid diethylamide (LSD) and 300 μl of diluted membrane expressing the 5-HT6 receptor. All test compounds were dissolved in DMSO (dimethyl-sulfoxide) at 10 mM and serially diluted is assay buffer to give a six-fold concentration range (between 0.01 nM and 100 μM). Non-specific binding was determined with 10 μM Methiothepin. Plates were incubated at room temperature for 90 minutes. The reactions were terminated by rapid filtration using a Packard harvester onto 96 well GF/B filter plates (Packerd Unifilter) presoaked with 0.3% w/N polyethyleneimine, washed 3 times with ice-cold assay buffer (1 ml), oven dried and 50 μl Microscint-20 added. The retained radioactivity was then determined using a scintillation counter.
Data were analysed using standard curve fitting procedures (Graphpad: four parameter logistic equation) to produce IC50 values for active compounds (where IC50 is the concentration of test compound causing 50% inhibition of binding). IC50 values were conerted to pKi values using the Cheng-Prusoff equation 1 (Cheng, Y. and Prosoff, W. H., Biochem. Pharmacol. 22, 3099-3108, 1973).

T1 sequence (P50406 whole entry): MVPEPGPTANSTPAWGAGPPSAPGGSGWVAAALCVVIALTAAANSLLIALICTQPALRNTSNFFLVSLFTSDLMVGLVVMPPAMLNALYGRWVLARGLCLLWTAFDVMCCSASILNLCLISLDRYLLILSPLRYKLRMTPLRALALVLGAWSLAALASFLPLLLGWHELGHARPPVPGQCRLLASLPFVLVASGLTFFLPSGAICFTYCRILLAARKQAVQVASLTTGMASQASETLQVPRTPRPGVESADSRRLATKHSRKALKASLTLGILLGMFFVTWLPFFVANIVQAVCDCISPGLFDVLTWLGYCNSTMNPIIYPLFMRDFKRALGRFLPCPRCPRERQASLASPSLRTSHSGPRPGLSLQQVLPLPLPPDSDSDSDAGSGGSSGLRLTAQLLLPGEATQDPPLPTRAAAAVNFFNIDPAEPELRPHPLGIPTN

SMILES | Ki
COc1ccc(S(=O)(=O)N2CC(C(=O)NC3CCN(C)CC3)c3ccccc32)c2ccccc12 (centres unmarked) [Example 25, 1-(4-Methoxynaphthalene-1-sulfonyl)-2,3-dihydro-1H-indole-3-carboxylic acid (1-methyl-piperidin-4-yl)-amide] | < 31.6 nM
CN1CCC(N(C)C(=O)C2CN(S(=O)(=O)c3ccc(C(F)(F)F)cc3)c3ccccc32)CC1 (centres unmarked) [Example 50, 1-(4-Trifluoromethyl-benzenesulfonyl)-2,3-dihydro-1H-indole-3-carboxylic acid methyl-(1-methyl-piperidin-4-yl)-amide trifluoroacetate] | < 31.6 nM
CN1CCC(N(C)C(=O)C2CN(S(=O)(=O)c3ccc4c(c3)CCO4)c3ccccc32)CC1 (centres unmarked) [Example 55, 1-(2,3-Dihydro-benzofuran-5-sulfonyl)-2,3-dihydro-1H-indole-3-carboxylic acid methyl-(1-methyl-piperidin-4-yl)-amide trifluoroacetate] | < 31.6 nM
COc1ccc(S(=O)(=O)N2CC(C(=O)NC3CC4CCC(C3)N4C)c3ccccc32)c2ccccc12 (centres unmarked) [Example 31, 1-(4-Methoxynaphthalene-1-sulfonyl)-2,3-dihydro-1H-indole-3-carboxylic acid (8-methyl-8-aza-bicyclo[3.2.1]oct-3-yl)amide] | < 31.6 nM
COc1ccc(S(=O)(=O)N2CC(C(=O)NCCC3CCCN3C)c3ccccc32)c2ccccc12 (centres unmarked) [Example 1, 1-(4-Methoxynaphthalene-1-sulfonyl)-2,3-dihydro-1H-indole-3-carboxylic acid [2-(1-methyl-pyrrolidin-2-yl)-ethyl]amide] | < 31.6 nM
CCN(CC)CCNC(=O)C1CN(S(=O)(=O)c2ccc(OC)c3ccccc23)c2ccccc21 (centres unmarked) [Example 24, 1-(4-Methoxynaphthalene-1-sulfonyl)-2,3-dihydro-1H-indole-3-carboxylic acid (2-diethylamino-ethyl)-amide] | < 31.6 nM
COc1ccc(S(=O)(=O)N2CC(C(=O)N(C)C3CCN(C)CC3)c3ccccc32)cc1Br (centres unmarked) [Example 69, 1-(3-Bromo-4-methoxy-benzenesulfonyl)-2,3-dihydro-1H-indole-3-carboxylic acid methyl-(1-methyl-piperidin-4-yl)-amide trifluoroacetate] | < 31.6 nM
Cc1cc(S(=O)(=O)N2CC(C(=O)N(C)C3CCN(C)CC3)c3ccccc32)c(C(F)(F)F)o1 (centres unmarked) [Example 109, 1-(5-Methyl-2-trifluoromethyl-furan-3-sulphonyl)-2,3-dihydro-1H-indole-3-carboxylic acid methyl-(1-methyl-piperidin-4-yl)-amide] | < 31.6 nM
CN1CCC(N(C)C(=O)C2CN(S(=O)(=O)c3cccc(C(F)(F)F)c3)c3ccccc32)CC1 (centres unmarked) [Example 39, 1-(3-Trifluoromethyl-benzenesulfonyl)-2,3-dihydro-1H-indole-3-carboxylic acid methyl-(1-methyl-piperidin-4-yl)-amide trifluoroacetate] | < 31.6 nM
COc1ccc(S(=O)(=O)N2CC(C(=O)N3CCNCC3)c3ccccc32)c2ccccc12 (centres unmarked) [Example 17, [1-(4-Methoxynaphthalene-1-sulfonyl)-2,3-dihydro-1H-indol-3-yl]-piperazin-1-yl-methanone] | < 31.6 nM
CN1CCC(N(C)C(=O)C2CN(S(=O)(=O)c3cccc(Br)c3)c3ccccc32)CC1 (centres unmarked) [Example 40, 1-(3-Bromo-benzenesulfonyl)-2,3-dihydro-1H-indole-3-carboxylic acid methyl-(1-methyl-piperidin-4-yl)-amide trifluoroacetate] | < 31.6 nM
CN1CCC(N(C)C(=O)C2CN(S(=O)(=O)c3csc4ccccc34)c3ccccc32)CC1 (centres unmarked) [Example 62, 1-(Benzo[b]thiophene-3-sulfonyl)-2,3-dihydro-1H-indole-3-carboxylic acid methyl-(1-methyl-piperidin-4-yl)-amide trifluoroacetate] | < 31.6 nM
CN1CCC(N(C)C(=O)C2CN(S(=O)(=O)c3ccc4ccccc4c3)c3ccccc32)CC1 (centres unmarked) [Example 58, 1-(Naphthalene-2-sulfonyl)-2,3-dihydro-1H-indole-3-carboxylic acid methyl-(1-methyl-piperidin-4-yl)-amide trifluoroacetate] | < 31.6 nM
CN1CCC(N(C)C(=O)C2CN(S(=O)(=O)c3cc(Cl)sc3Cl)c3ccccc32)CC1 (centres unmarked) [Example 51, 1-(2,5-Dichloro-thiophene-3-sulfonyl)-2,3-dihydro-1H-indole-3-carboxylic acid methyl-(1-methyl-piperidin-4-yl)-amide trifluoroacetate] | < 31.6 nM
CN1CCC(N(C)C(=O)C2CN(S(=O)(=O)c3ccc(OC(F)(F)F)cc3)c3ccccc32)CC1 (centres unmarked) [Example 42, 1-(4-Trifluoromethoxy-benzenesulfonyl)-2,3-dihydro-1H-indole-3-carboxylic acid methyl-(1-methyl-piperidin-4-yl)-amide trifluoroacetate] | < 31.6 nM
CN1CCC(N(C)C(=O)C2CN(S(=O)(=O)c3cccc(-c4ccccc4)c3)c3ccccc32)CC1 (centres unmarked) [Example 60, 1-(Biphenyl-3-sulfonyl)-2,3-dihydro-1H-indole-3-carboxylic acid methyl-(1-methyl-piperidin-4-yl)-amide trifluoroacetate] | < 31.6 nM
COc1ccc(S(=O)(=O)N2CC(C(=O)N(C)C3CCN(C)CC3)c3ccccc32)c2ccccc12 (centres unmarked) [Example 35, 1-(4-Methoxynaphthalene-1-sulfonyl)-2,3-dihydro-1H-indole-3-carboxylic acid methyl-(1-methyl-piperidin-4-yl)-amide] | < 31.6 nM
COc1ccc(S(=O)(=O)N2CC(C(=O)NC3CCCN(C)C3)c3ccccc32)c2ccccc12 (centres unmarked) [Example 2, 1-(4-Methoxynaphthalene-1-sulfonyl)-2,3-dihydro-1H-indole-3-carboxylic acid (1-methyl-piperidin-3-yl)amide] | < 31.6 nM
CN1CCC(N(C)C(=O)C2CN(S(=O)(=O)c3cccc4ccccc34)c3ccccc32)CC1 (centres unmarked) [Example 59, 1-(Naphthalene-1-sulfonyl)-2,3-dihydro-1H-indole-3-carboxylic acid methyl-(1-methyl-piperidin-4-yl)-amide trifluoroacetate] | < 31.6 nM
CN1CCC(N(C)C(=O)C2CN(S(=O)(=O)c3cccc4c(Cl)cccc34)c3ccccc32)CC1 (centres unmarked) [Example 71, 1-(5-Chloro-naphthalene-1-sulfonyl)-2,3-dihydro-1H-indole-3-carboxylic acid methyl-(1-methyl-piperidin-4-yl)-amide trifluoroacetate] | < 31.6 nM
